Among the data in US20120122870A1, “Treatment Of Ischemia-Reperfusion Injury” (MUSC FOUNDATION FOR RESEARCH DEVELOPMENT, priority 2009, published 2012) are inhibition and IC50 values, retold here.

As a reminder, the inhibition is the percentage by which the read-out fell short of the control. One may read the IC50 as the point on the concentration scale where inhibition reaches its midpoint. A higher IC50 goes with weaker potency in that assay.

The test system of the first experiment is endogenous SK activity in MDA-MB-231 cells. The experiment is described as follows: Cellular S1P production (endogenous SK activity) in MDA-MB-231 cells. It is filed as cell-based. To be noted: Homo sapiens, MDA-MB-231, MDA-MB-231 cells incubated with 20 μg/mL of compound; percentage of S1P production inhibited. As for the experimental part: Human SK was incubated with 6 μg/mL of the indicated compounds, and then assayed for activity as described above. Values in the column labeled “Recombinant SK (% inhibition)” represent the percentage of SK activity that was inhibited. MDA-MB-231 cells were incubated with 20 μg/mL of the indicated compounds and then assayed for endogenous SK activity as indicated above. Values in the column labeled “Cellular S1P (% inhibition)” represent the percentage of S1P production that was inhibited. Additionally, MDA-MB-231 cells were treated with varying concentration of certain compounds and the amount of S1P produced by the cells was determined. Values in the column labeled “Cellular S1P IC50 (μM)” represent the concentration of compound required to inhibit the production of S1P by 50%. ND=not determined.
As to `O=C(NCCc1ccc(O)c(O)c1)C12CC3CC(C1)CC(c1ccc(Cl)cc1)(C3)C2` [A44, 3-(4-Chloro-phenyl)-adamantane-1-carboxylic acid [2-(3,4-dihydroxy-phenyl)-ethyl]-amide], the inhibition at 20 µg/mL turned out to be 88%.

As for `CC(C)NCC12CC3CC(C1)CC(c1ccc(Cl)cc1)(C3)C2` [A75, [3-(4-Chloro-phenyl)-adamantan-1-ylmethyl]-isopropyl-amine], the inhibition at 20 µg/mL stood at 41%. `O=C(Nc1ccc(Cl)c(C(F)(F)F)c1)Nc1nc(-c2ccc(Cl)cc2)cs1` [B1, 1-[4-(4-Chloro-phenyl)-thiazol-2-yl]-3-(4-chloro-3-trifluoromethyl-phenyl)-urea] returned an inhibition at 20 µg/mL of 32%. `CCCCCCCCCCCCCC(=O)Nc1nc(-c2ccc(Cl)cc2)cs1` [B2, Tetradecanoic acid [4-(4-chloro-phenyl)-thiazol-2-yl]-amide]: testing at 20 µg/mL gave an inhibition of 43%. In the case of `C=CCCCCCCCCC(=O)Nc1nc(-c2ccc(Cl)cc2)cs1` [B4, Undec-10-enoic acid [4-(4-chloro-phenyl)-thiazol-2-yl]-amide], the inhibition at 20 µg/mL worked out at 39%. Regarding `O=C(C=Cc1ccc([N+](=O)[O-])cc1)Nc1nc(-c2ccc(Cl)cc2)cs1` [B5, N-[4-(4-Chloro-phenyl)-thiazol-2-yl]-3-(4-nitro-phenyl)-acrylamide], the inhibition at 20 µg/mL was 25%. With `CCCCCCCCC=CCCCCCCCC(=O)Nc1nc(-c2ccc(Cl)cc2)cs1` [B6, Octadec-9-enoic acid [4-(4-chloro-phenyl)-thiazol-2-yl]-amide], the inhibition at 20 µg/mL is 21%. `O=C(C=Cc1ccccc1)Nc1nc(-c2ccc(Cl)cc2)cs1` [B7, N-[4-(4-Chloro-phenyl)-thiazol-2-yl]-3-phenyl-acrylamide] showed an inhibition at 20 µg/mL of 21%. `CCCC(=O)Oc1ccc(C=CC(=O)Nc2nc(-c3ccc(Cl)cc3)cs2)cc1OC` [B8, Butyric acid 4-{2-[4-(4-chloro-phenyl)-thiazol-2-ylcarbamoyl]-vinyl}-2-methoxy-phenyl ester] gave an inhibition at 20 µg/mL of 80%.

`COc1cc(C=CC(=O)Nc2nc(-c3cccc(Cl)c3)cs2)ccc1O` [B9, N-[4-(3-Chloro-phenyl)-thiazol-2-yl]-3-(4-hydroxy-3-methoxy-phenyl)-acrylamide] gave an inhibition at 20 µg/mL of 32%. `COc1cc(C=CC(=O)Nc2nc(-c3ccc(Cl)cc3)cs2)ccc1OC(C)=O` [B10, Acetic acid 4-{2-[4-(4-chloro-phenyl)-thiazol-2-ylcarbamoyl]-vinyl}-2-methoxy-phenyl ester]: the inhibition at 20 µg/mL stood at 48%. Turning to `CCCC(=O)Oc1ccc(C=CC(=O)Nc2nc(-c3ccc(Cl)cc3)cs2)cc1OC(=O)CCC` [B11, Butyric acid 2-butyryloxy-5-{2-[4-(4-chloro-phenyl)-thiazol-2-ylcarbamoyl]-vinyl}-phenyl ester], the inhibition at 20 µg/mL came out at 55%. `CC(=O)Oc1ccc(C=CC(=O)Nc2nc(-c3ccc(Cl)cc3)cs2)cc1` [B12, Acetic acid 4-{2-[4-(4-chloro-phenyl)-thiazol-2-ylcarbamoyl]-vinyl}-phenyl ester] registered an inhibition at 20 µg/mL of 13%.

Compound `CCCC(=O)Oc1ccccc1C=CC(=O)Nc1nc(-c2ccc(Cl)cc2)cs1` [B13, Butyric acid 2-{2-[4-(4-chloro-phenyl)-thiazol-2-ylcarbamoyl]-vinyl}-phenyl ester] registered an inhibition at 20 µg/mL of 0%.

The compound `CCCC(=O)Oc1cccc(C=CC(=O)Nc2nc(-c3ccc(Cl)cc3)cs2)c1` [B14, Butyric acid 3-{2-[4-(4-chloro-phenyl)-thiazol-2-ylcarbamoyl]-vinyl}-phenyl ester] showed an inhibition at 20 µg/mL of 39%.

In turn, `CCCC(=O)Oc1ccc(C=CC(=O)Nc2nc(-c3ccc(Cl)cc3)cs2)cc1` [B15, Butyric acid 4-{2-[4-(4-chloro-phenyl)-thiazol-2-ylcarbamoyl]-vinyl}-phenyl ester] registered an inhibition at 20 µg/mL of 23%. Regarding `CCCC(=O)Oc1ccc(CC(=O)Nc2nc(-c3ccc(Cl)cc3)cs2)cc1OC` [B16, Butyric acid 4-{[4-(4-chloro-phenyl)-thiazol-2-ylcarbamoyl]-methyl}-2-methoxy-phenyl ester], 20 µg/mL produced 83% inhibition.

`CCCC(=O)Oc1ccc(CC(=O)Nc2nc(-c3ccc(Cl)cc3)cs2)cc1OC(=O)CCC` [B17, Butyric acid 2-butyryloxy-5-{[4-(4-chloro-phenyl)-thiazol-2-ylcarbamoyl]-methyl}-phenyl ester] had an inhibition at 20 µg/mL of 57%. `CCCC(=O)Oc1cc(C=CC(=O)Nc2nc(-c3ccc(Cl)cc3)cs2)ccc1OC` [B18, Butyric acid 5-{2-[4-(4-chloro-phenyl)-thiazol-2-ylcarbamoyl]-vinyl}-2-methoxy-phenyl ester] yielded an inhibition at 20 µg/mL of 65%. Compound `CCCC(=O)Oc1ccc(C=CC(=O)Nc2nc(-c3ccc(C)cc3)cs2)cc1OC` [B19, Butyric acid 2-methoxy-4-[2-(4-p-tolyl-thiazol-2-ylcarbamoyl)-vinyl]-phenyl ester] displayed an inhibition at 20 µg/mL of 53%. For `CCCC(=O)Oc1ccc(C=CC(=O)Nc2nc(-c3ccc(Br)cc3)cs2)cc1OC` [B20, Butyric acid 4-{2-[4-(4-bromo-phenyl)-thiazol-2-ylcarbamoyl]-vinyl}-2-methoxy-phenyl ester], at 20 µg/mL the inhibition was 62%. `O=C(C=Cc1ccc2c(c1)OCO2)Nc1nc(-c2ccc(Cl)cc2)cs1` [B21, 3-Benzo[1,3]dioxol-5-yl-N-[4-(4-chloro-phenyl)-thiazol-2-yl]-acrylamide]: the inhibition at 20 µg/mL was 41%. As to `O=C(Cc1ccc2c(c1)OCO2)Nc1nc(-c2ccc(Cl)cc2)cs1` [B22, 2-Benzo[1,3]dioxol-5-yl-N-[4-(4-chloro-phenyl)-thiazol-2-yl]-acetamide], the inhibition at 20 µg/mL turned out to be 33%. `COc1ccc(CCC(=O)Nc2nc(-c3ccc(Cl)cc3)cs2)cc1OC` [B23, N-[4-(4-Chloro-phenyl)-thiazol-2-yl]-3-(3,4-dimethoxy-phenyl)-propionamide] registered an inhibition at 20 µg/mL of 14%.

The compound `CCCC(=O)Oc1ccc(C(=O)Nc2nc(-c3ccc(Cl)cc3)cs2)cc1OC` [B24, Butyric acid 4-[4-(4-chloro-phenyl)-thiazol-2-ylcarbamoyl]-2-methoxy-phenyl ester] returned an inhibition at 20 µg/mL of 69%. `CCCC(=O)Oc1ccc(C(=O)Nc2nc(-c3ccc(Cl)cc3)cs2)cc1OC(=O)CCC` [B25, Butyric acid 2-butyryloxy-4-[4-(4-chloro-phenyl)-thiazol-2-ylcarbamoyl]-phenyl ester] displayed an inhibition at 20 µg/mL of 79%. `CCCC(=O)Oc1ccc(CCC(=O)Nc2nc(-c3ccc(Cl)cc3)cs2)cc1OC(=O)CCC` [B26, Butyric acid 2-butyryloxy-4-{2-[4-(4-chloro-phenyl)-thiazol-2-ylcarbamoyl]-ethyl}-phenyl ester] returned an inhibition at 20 µg/mL of 79%. Still for that read-out and setting: for `CCCC(=O)Oc1cc(C(=O)Nc2nc(-c3ccc(Cl)cc3)cs2)cc(OC(=O)CCC)c1OC(=O)CCC` [B27, Butyric acid 2,6-bis-butyryloxy-4-[4-(4-chloro-phenyl)-thiazol-2-ylcarbamoyl]-phenyl ester] the value was 68%. Still for that read-out and setting: for `CCCC(=O)Oc1ccc(C=CC(=O)Nc2nc(-c3ccc(F)cc3)cs2)cc1OC` [B28, Butyric acid 4-{2-[4-(4-fluoro-phenyl)-thiazol-2-ylcarbamoyl]-vinyl}-2-methoxy-phenyl ester] the value was 65%; for `O=C(NCc1ccncc1)c1nc(-c2ccc(Cl)cc2)cs1` [B34, 4-(4-Chloro-phenyl)thiazole-2-carboxylic acid (pyridin-4-ylmethyl)amide], 28%; for `CN(C)c1ccc(CNC(=O)c2nc(-c3ccc(Cl)cc3)cs2)cc1` [B35, 4-(4-Chloro-phenyl)-thiazole-2-carboxylic acid 4-dimethylamino-benzylamide], 17%. Turning to `O=C(NCc1cc(F)cc(F)c1)c1nc(-c2ccc(Cl)cc2)cs1` [B36, 4-(4-Chloro-phenyl)-thiazole-2-carboxylic acid 3,5-difluoro-benzylamide], 20 µg/mL produced 0% inhibition. Turning to `O=C(NCc1ccc(Cl)c(C(F)(F)F)c1)c1nc(-c2ccc(Cl)cc2)cs1` [B37, 4-(4-Chloro-phenyl)-thiazole-2-carboxylic acid 4-chloro-3-trifluoromethyl-benzylamide], the inhibition at 20 µg/mL is 0%. For `O=C(NCc1ccc(F)cc1Cl)c1nc(-c2ccc(Cl)cc2)cs1` [B38, 4-(4-Chloro-phenyl)-thiazole-2-carboxylic acid 2-chloro-4-fluoro-benzylamide], at 20 µg/mL the inhibition was 0%. For the compound `O=C(NCc1ccc(F)c(Cl)c1)c1nc(-c2ccc(Cl)cc2)cs1` [B39, 4-(4-Chloro-phenyl)-thiazole-2-carboxylic acid 3-chloro-4-fluoro-benzylamide], 20 µg/mL produced 0% inhibition. Compound `O=C(NCc1ccc(F)c(F)c1)c1nc(-c2ccc(Cl)cc2)cs1` [B40, 4-(4-Chloro-phenyl)-thiazole-2-carboxylic acid 3,4-difluoro-benzylamide] returned an inhibition at 20 µg/mL of 0%. On to `COc1ccc(CCNC(=O)c2nc(-c3ccc(Cl)cc3)cs2)cc1Br` [B41, 4-(4-Chloro-phenyl)-thiazole-2-carboxylic acid [2-(3-bromo-4-methoxy-phenyl)-ethyl]-amide], for which testing at 20 µg/mL gave an inhibition of 0%. For the compound `O=C(NCc1cc(F)c(F)c(F)c1)c1nc(-c2ccc(Cl)cc2)cs1` [B42, 4-(4-Chloro-phenyl)-thiazole-2-carboxylic acid 3,4,5-trifluoro-benzylamide], the inhibition at 20 µg/mL came out at 0%.

Staying with this experiment, now noted: Homo sapiens; MDA-MB-231 cells, varying concentrations; concentration inhibiting S1P production by 50%.
Turning to `O=C(NCCc1ccc(O)c(O)c1)C12CC3CC(C1)CC(c1ccc(Cl)cc1)(C3)C2` [A44, 3-(4-Chloro-phenyl)-adamantane-1-carboxylic acid [2-(3,4-dihydroxy-phenyl)-ethyl]-amide], the half-maximal inhibitory concentration (IC50) was 35 µM.

Regarding `CCCC(=O)Oc1ccc(C=CC(=O)Nc2nc(-c3ccc(Cl)cc3)cs2)cc1OC` [B8, Butyric acid 4-{2-[4-(4-chloro-phenyl)-thiazol-2-ylcarbamoyl]-vinyl}-2-methoxy-phenyl ester], the IC50 was 34 µM.
